Experiments:
[1] = test system: orthotopic MCF10Ca1A breast tumors; test: In vivo homing of iron oxide nanoworms in tumor-bearing mice; settings: IV, 7.5 mg Fe/kg, 5-6 hours circulation
Description: FIG. 10 is a graph of nanoparticles functionalized with compound #008 homing to tumors and atherosclerotic plaques. Orthotopic MCF10Ca1Abreast tumors from mice injected with iron oxide […] (NWs) (7.5 mg/kg of Fe) coated with FAM-#008 or with an inert peptide (control). The NWs were allowed to circulate for 5 hours, the mice were perfused through the heart with PBS and tumors, and organs were collected. Quantification of fluorescence carried out with ImageJ software. Multiple sections from three tumors were analyzed (P<0.0001, Student's t-test).
Animal experimentation was performed according to the procedures approved by the Animal Research Committee at the Sanford-Burnham Medical Research Institute, San Diego. […] FAM labeled #4014008-NWs were injected into the tail vein (7.5 mg of iron per kilogram of body weight), the animals were euthanized 5-6 hours after the injection by cardiac perfusion with PBS under anesthesia, and organs were dissected and analyzed for particle homing. […]
For immunostaining, […] tissue sections were first incubated for 1 hour at room temperature with 10% serum from the species in which the secondary antibody was generated, followed by incubation with the primary antibody overnight at 4° C. […] The primary antibodies were detected with Alexa 594 goat anti-rat and 594 goat anti-rabbit secondary antibodies (1:1000; Molecular Probes). […]

[2] = target: T1, p32 protein (Homo sapiens, UniProt Q07021); test: Fluorescence polarization assay: displacement of FAM-TT1 from p32 (HTS, dose response, unlabeled peptide competition); type: binding
T1 construct: 6xHis; host or cells: Rosetta-gami-2 cells (Novagen); an E. coli strain by own knowledge
T1 sequence (Q07021 74-282): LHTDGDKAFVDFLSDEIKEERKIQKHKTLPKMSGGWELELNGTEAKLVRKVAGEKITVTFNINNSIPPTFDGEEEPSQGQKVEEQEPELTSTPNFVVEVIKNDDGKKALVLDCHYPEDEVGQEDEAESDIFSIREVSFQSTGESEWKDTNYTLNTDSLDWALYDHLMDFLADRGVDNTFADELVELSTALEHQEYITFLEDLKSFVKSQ
Description: Fluorescence polarization (FP)-based assay was used for solution-based screening of compound libraries for p32 binding compounds. […] In FP assay, peptide conjugated with a fluorescent label (fluorescein-AM, FAM) is excited with polarized light. […] 6×-His-Tagged p^32 was expressed in Rosetta-gami-2 cells (Novagen). The protein was purified by IMAC using HIS-select resin (Sigma) with an imidizole gradient from 20-300 mM and eluted fractions were analyzed on analytical SDS-PAGE. […] Fluorescence polarization is given as milli-polarization (mP) value, which is obtained from equation (1):
mP=1000*(S−P)/(S+P), (Eq. 1)
The assay was initially set up in 20 μl well volume in 384 well plate (Corning Life Sciences), and measurements were carried out using PheraStar FS plate reader (BMG LABTECH, Ortenberg, Germany) in quadruplicate. Peptide and protein stock solutions were diluted to desired concentration with assay buffer (50 mM BIS-TRIS pH 7.4, 0.05% Tween20, 1 mM DTT). FAM-labeled peptides were protected from light during the experiment to avoid photobleaching. Optimal concentration of fluorescein (FAM) labeled-peptides for the assay was determined by measuring the limit of detection (LOD), signal-to-background ratio (S/B), and stability of mP value over series of peptide concentrations. In the binding assay, the concentration of FAM-peptide was kept constant, and the FP was measured over the range of target protein concentrations. The peptide dissociation constant (KD) was obtained by fitting the binding curve into Michaelis-Menten kinetics in GraphPad Prism-software (GraphPad Software, Inc., CA, USA).
FAM-TT-1 and p32 solutions are prepared just before experiment, and stored on ice during the screen; the peptide is shielded from light. • 1. […] Dispense 1.5 μL of assay buffer (50 mM BIS-TRIS pH 7.4, 0.05% Tween 20, 1 mM DTT) into columns 1-4 • 3. […] Dispense 37.5 nL of compounds (2 mM) into columns 5-44 • 5. Spin plate • 6. Incubate 20 min • 7. Dispense 1.5 μL FAM-TT-1 peptide (20 nM) into all columns • 8. Shake plate and spin plate • 9. Incubate 25 min • 10. Read plate on PheraStar FS
Chemical library of ˜50,000 compounds from ChemBridge (San Diego, Calif.) was screened in High-Throughput Screening Facility at Conrad Prebys Center for Chemical Genomics (Sanford-Burnham Medical Research Institute, La Jolla, Calif.). […] Peptide and protein were diluted immediately prior to screening, kept on ice during screening, and FAM-peptide was protected from light throughout the experiment. […]

inhibition at 25 µM ([2]; high-throughput screen hits, inhibition of TT1-p32 interaction, library compounds 25 μM (Table 1), b410 says 100 μM): 29.9% | inhibition at 100 µM ([2]; highest concentration used, 100 μM, read-out: inhibition of FAM-TT1 binding to p32 in FP assay): 75%
Structure (SMILES): Cc1cnccc1NCCN [Compound 4014008, N-(3-methylpyridin-4-yl)ethane-1,2-diamine]
homing to MCF10Ca1A tumors [1]: specifically home to tumors

From US20200268832A1, “COMPOSITIONS FOR DELIVERY TO AND TREATMENT OF ATHEROSCLEROTIC PLAQUES” (Sanford Burnham Prebys Medical Discovery Institute, priority 2015, published 2020)
